From patent US20250144067A1, “PERSONALIZED STARVATION THERAPY FOR CANCER” (Faeth Therapeutics, Inc., priority 2021, published 2025)
Counter-ions that a name gives are not always drawn. Like-named read-outs stand apart in the source and are kept apart here.

What was measured:
[1] = test system: NCI-H292 lung cancer cells; assay: FDA drug screening, complete media vs cholesterol-free media with simvastatin (TABLE 2); assay type: cell-based, human
[2] = test system: NCI-H292 lung cancer cells; assay: FDA drug screening, complete media vs cholesterol-free media without statin (TABLE 1); assay type: cell-based, human
[3] = NCI-H292 cells, FDA drug library screen, cholesterol-free media with simvastatin 0.04 μM
[4] = NCI-H292 cells, FDA drug library screen, complete media
[5] = complete media vs cholesterol-free media + simvastatin (0.04 μM), >0 enhanced anti-cancer activity, about 0 neutral, <0 antagonist
[6] = Complete minus Cholesterol-free, greater than 0 enhanced anti-cancer activity, about 0 neutral, below 0 antagonists
[7] = NCI-H292 cells in cholesterol-free media without statin
[8] = NCI-H292 cells in complete media
[9] = NCI-H292 cells, FDA library drug in cholesterol-free media with simvastatin 0.04 μM
[10] = NCI-H292 cells, FDA library drug in complete media
[11] = NCI-H292 cells, cholesterol-free media without statin
[12] = NCI-H292 cells, cholesterol-free media with simvastatin 0.04 μM, cell growth value in FDA drug screen
[13] = NCI-H292 cells, complete media, cell growth value in FDA drug screen
[14] = complete media minus cholesterol-free media + simvastatin, >0 enhanced anti-cancer activity, about 0 neutral, <0 antagonist
[15] = Complete minus Cholesterol-free, >0 enhanced anti-cancer activity, about 0 neutral, <0 antagonist
[16] = NCI-H292 cells, cholesterol-free media with simvastatin 0.04 μM, FDA drug library screen (TABLE 2)
[17] = NCI-H292 cells, complete media, FDA drug library screen (TABLE 2)
[18] = complete media minus cholesterol-free media + simvastatin (0.04 μM), >0 enhanced anti-cancer activity, about 0 neutral, <0 antagonist
[19] = NCI-H292 cells, cholesterol-free media without statin, FDA drug library screen
[20] = NCI-H292 cells, complete media, FDA drug library screen
[21] = complete vs cholesterol-free media, >0 enhanced anti-cancer activity, about 0 neutral, <0 antagonist
[22] = NCI-H292 cells, drug in cholesterol-free media with simvastatin 0.04 μM
[23] = NCI-H292 cells, drug in complete media
[24] = complete vs cholesterol-free media, greater than 0 enhanced anti-cancer activity, about 0 neutral, below 0 antagonists
[25] = Complete minus Cholesterol-free, greater than 0 enhanced anti-cancer activity, about 0 neutral, below 0 antagonist
[26] = NCI-H292 cells, FDA drug library screen, cholesterol-free media without statin
[27] = NCI-H292 cells, cholesterol-free media with simvastatin 0.04 μM, […]
[28] = NCI-H292 cells, complete media, […]
[29] = complete media minus cholesterol-free media + simvastatin, […]
[30] = Complete minus Cholesterol-free, […]

CC1(C)CCC(CN2CCN(c3ccc(C(=O)NS(=O)(=O)c4ccc(NCC5CCOCC5)c([N+](=O)[O-])c4)c(Oc4cnc5[nH]ccc5c4)c3)CC2)=C(c2ccc(Cl)cc2)C1 [Venetoclax]
Cholesterol-free media + simvastatin (0.04 μM) [1, 3]: 1.767 | Complete Media [1, 4]: 1.658 | Difference [1, 5]: −0.11 | Difference [2, 6]: −0.58 | Cholesterol-free [2, 7]: 1.517 | Complete [2, 8]: 0.9332

COc1ccc(C(CN(C)C)C2(O)CCCCC2)cc1 (centres unmarked) [Venlafaxine (hydrochloride)]
Cholesterol-free media + simvastatin (0.04 μM) [1, 9]: 1.551 | Complete Media [1, 10]: 1.023 | Difference ([1]; complete media vs cholesterol-free media + simvastatin (0.04 μM), […]): −0.53 | Cholesterol-free [2, 11]: 1.049 | Complete ([2]; NCI-H292 cells, complete media): 0.7326 | Difference ([2]; complete vs cholesterol-free media, […]): −0.32

COc1ccc(CCN(C)CCCC(C#N)(c2ccc(OC)c(OC)c2)C(C)C)cc1OC (centres unmarked) [Verapamil (hydrochloride)]
Cholesterol-free media + simvastatin (0.04 μM) [1]: 1.071 | Complete Media [1]: 1.013 | Difference [1]: −0.06 | Cholesterol-free [2]: 0.9873 | Complete [2]: 0.8558 | Difference [2]: −0.13

COc1ccc(CCO[C@@H]2CCCC[C@H]2N2CC[C@@H](O)C2)cc1OC [Vernakalant (Hydrochloride)]
Cholesterol-free media + simvastatin (0.04 μM) [1, 12]: 1.555 | Complete Media [1, 13]: 1.614 | Difference [1, 14]: 0.06 | Difference [2, 15]: −0.26 | Cholesterol-free [2, 11]: 1.252 | Complete ([2]; NCI-H292 cells, complete media): 0.9876

COc1ccc(C(=O)N2CCN(c3ccc4c(c3)CCC(=O)N4)CC2)cc1OC [Vesnarinone]
Cholesterol-free media + simvastatin (0.04 μM) [1, 16]: 0.9506 | Complete Media [1, 17]: 0.9031 | Difference [1, 18]: −0.05 | Cholesterol-free [2, 19]: 0.9756 | Complete [2, 20]: 1.197 | Difference [2, 21]: 0.22

Nc1ncnc2c1ncn2[C@@H]1O[C@H](CO)[C@@H](O)[C@@H]1O [Vidarabine]
Cholesterol-free media + simvastatin (0.04 μM) [1, 22]: 0.9857 | Complete Media [1, 23]: 0.8059 | Difference [1, 5]: −0.18 | Cholesterol-free [2, 11]: 1.542 | Complete ([2]; NCI-H292 cells, complete media): 1.194 | Difference [2, 24]: −0.35

C=CC(N)CCC(=O)O (centres unmarked) [Vigabatrin (hydrochloride)]
Cholesterol-free media + simvastatin (0.04 μM) [1, 16]: 1.122 | Complete Media [1, 17]: 1.063 | Difference [1, 18]: −0.06 | Difference [2, 6]: −0.74 | Cholesterol-free [2, 7]: 1.769 | Complete [2, 8]: 1.024

C=CC(N)CCC(=O)O (centres unmarked) [Vigabatrin]
Cholesterol-free media + simvastatin (0.04 μM) [1, 16]: 0.8099 | Complete Media [1, 17]: 0.7743 | Difference [1, 18]: −0.04 | Cholesterol-free [2, 19]: 0.7255 | Complete [2, 20]: 1.221 | Difference [2, 21]: 0.50

O=C(O)C(c1ccccc1)(c1ccccc1)c1ccccc1.OCc1cc([C@@H](O)CNCCCCCCOCCOCc2c(Cl)cccc2Cl)ccc1O [Vilanterol (trifenatate)]
Cholesterol-free media + simvastatin (0.04 μM) [1, 16]: 0.9213 | Complete Media [1, 17]: 0.9369 | Difference [1, 18]: 0.02 | Cholesterol-free [2, 11]: 1.453 | Complete ([2]; NCI-H292 cells, complete media): 1.047 | Difference [2, 24]: −0.41

N#Cc1ccc2[nH]cc(CCCCN3CCN(c4ccc5oc(C(N)=O)cc5c4)CC3)c2c1 [Vilazodone (Hydrochloride)]
Cholesterol-free media + simvastatin (0.04 μM) [1, 3]: 0.5785 | Complete Media [1, 4]: 0.8037 | Difference [1, 14]: 0.23 | Cholesterol-free [2, 11]: 1.019 | Complete ([2]; NCI-H292 cells, complete media): 0.6984 | Difference [2, 24]: −0.32

N#Cc1ccc2[nH]cc(CCCCN3CCN(c4ccc5oc(C(=O)O)cc5c4)CC3)c2c1 [Vilazodone carboxylic acid]
Cholesterol-free media + simvastatin (0.04 μM) [1, 16]: 1.218 | Complete Media [1, 17]: 1.232 | Difference [1, 18]: 0.01 | Difference [2, 15]: −0.19 | Cholesterol-free [2, 11]: 0.9582 | Complete ([2]; NCI-H292 cells, complete media): 0.7696

N#Cc1ccc2[nH]cc(CCCCN3CCN(c4ccc5oc(C(N)=O)cc5c4)CC3)c2c1 [Vilazodone]
Cholesterol-free media + simvastatin (0.04 μM) [1, 12]: 0.8049 | Complete Media [1, 13]: 0.9107 | Difference [1, 14]: 0.11 | Cholesterol-free [2, 19]: 0.8843 | Complete [2, 20]: 1.054 | Difference [2, 21]: 0.17

N#C[C@@H]1CCCN1C(=O)CNC12CC3CC(CC(O)(C3)C1)C2 [Vildagliptin]
Cholesterol-free media + simvastatin (0.04 μM) [1, 3]: 1.588 | Complete Media [1, 4]: 1.466 | Difference [1, 5]: −0.12 | Difference [2, 6]: −0.50 | Cholesterol-free [2, 7]: 1.213 | Complete [2, 8]: 0.7138

CC[C@]12CCCN3CCc4c(n(c5ccccc45)C(=O)C1)[C@@H]32 [Vinburnine]
Cholesterol-free media + simvastatin (0.04 μM) [1, 3]: 1.049 | Complete Media [1, 4]: 1.235 | Difference [1, 14]: 0.19 | Cholesterol-free [2, 19]: 0.8229 | Complete [2, 20]: 1.424 | Difference [2, 21]: 0.60

CC[C@]12CCCN3CCc4c(n(c5ccccc45)[C@@](O)(C(=O)OC)C1)[C@@H]32 [Vincamine]
Cholesterol-free media + simvastatin (0.04 μM) [1, 16]: 0.8199 | Complete Media [1, 17]: 0.7686 | Difference [1, 18]: −0.05 | Cholesterol-free [2, 19]: 0.6922 | Complete [2, 20]: 1.178 | Difference [2, 21]: 0.49

CCOC(=O)C1=C[C@]2(CC)CCCN3CCc4c(n1c1ccccc41)[C@@H]32 [Vinpocetine]
Cholesterol-free media + simvastatin (0.04 μM) [1, 12]: 0.854 | Complete Media [1, 13]: 0.8952 | Difference [1, 14]: 0.04 | Difference [2, 25]: −0.09 | Cholesterol-free [2, 26]: 0.912 | Complete [2, 4]: 0.8209

CS(=O)(=O)c1ccc(C(=O)Nc2ccc(Cl)c(-c3ccccn3)c2)c(Cl)c1 [Vismodegib]
Cholesterol-free media + simvastatin (0.04 μM) [1, 16]: 1.089 | Complete Media [1, 17]: 1.052 | Difference [1, 18]: −0.04 | Difference [2, 15]: −0.05 | Cholesterol-free [2, 19]: 1.219

CC1=C(C)C(=O)C(CCCCCCCCCC[P+](c2ccccc2)(c2ccccc2)c2ccccc2)=CC1=O.[Br-] [Visomitin]
Cholesterol-free media + simvastatin (0.04 μM) [1, 27]: 0.1378 | Complete Media [1, 28]: 0.1554 | Difference [1, 29]: 0.02 | Difference [2, 30]: −0.06 | Cholesterol-free [2, 19]: 0.06935 | Complete [2, 20]: 0.01194

C=C1CC[C@H](O)C/C1=C/C=C1\CCC[C@]2(C)[C@@H]([C@H](C)/C=C/[C@H](C)C(C)C)CC[C@@H]12 [Vitamin D2]
Cholesterol-free media + simvastatin (0.04 μM) [1, 3]: 1.05 | Complete Media [1, 4]: 0.9687 | Difference [1, 5]: −0.08 | Difference [2, 6]: −0.62 | Cholesterol-free [2, 7]: 1.409 | Complete [2, 8]: 0.7927

CC1=C(C/C=C(\C)CCC[C@H](C)CCC[C@H](C)CCCC(C)C)C(=O)c2ccccc2C1=O [Vitamin K1]
Cholesterol-free media + simvastatin (0.04 μM) [1, 9]: 1.062 | Complete Media [1, 10]: 0.6359 | Difference [1, 5]: −0.43 | Cholesterol-free [2, 19]: 0.9273 | Complete [2, 20]: 1.412 | Difference [2, 21]: 0.48

CC(=O)Oc1cc(C)c(OC(C)=O)c2ccccc12 [Vitamin K4]
Cholesterol-free media + simvastatin (0.04 μM) [1, 27]: 0.7559 | Complete Media [1, 28]: 0.8779 | Difference [1, 29]: 0.12 | Difference [2, 30]: −0.21 | Cholesterol-free [2, 11]: 0.9817 | Complete ([2]; NCI-H292 cells, complete media): 0.7726

OCC(CO)N[C@H]1C[C@](O)(CO)[C@@H](O)[C@H](O)[C@H]1O [Voglibose]
Cholesterol-free media + simvastatin (0.04 μM) [1]: 0.9097 | Complete Media [1]: 0.6837 | Difference [1]: −0.23 | Cholesterol-free [2]: 1.147 | Complete [2]: 1.027 | Difference [2]: −0.12

CNCc1cc(-c2ccccc2F)n(S(=O)(=O)c2cccnc2)c1 [Vonoprazan]
Cholesterol-free media + simvastatin (0.04 μM) [1, 9]: 1.249 | Complete Media [1, 10]: 0.8473 | Difference [1, 5]: −0.40 | Difference [2, 25]: −0.07 | Cholesterol-free [2, 26]: 1.105 | Complete [2, 4]: 1.031

CCOC(=O)N[C@@H]1CC[C@@H]2[C@@H](C1)C[C@H]1C(=O)O[C@H](C)[C@H]1[C@H]2/C=C/c1ccc(-c2cccc(F)c2)cn1 [Vorapaxar]
Cholesterol-free media + simvastatin (0.04 μM) [1, 16]: 1.048 | Complete Media [1, 17]: 1.005 | Difference [1, 18]: −0.04 | Difference [2, 15]: −0.20 | Cholesterol-free [2, 11]: 1.186 | Complete ([2]; NCI-H292 cells, complete media): 0.984

C[C@@H](c1ncncc1F)[C@](O)(Cn1cncn1)c1ccc(F)cc1F [Voriconazole]
Cholesterol-free media + simvastatin (0.04 μM) [1, 22]: 1.08 | Complete Media [1, 23]: 0.8559 | Difference [1, 5]: −0.22 | Cholesterol-free [2, 19]: 0.6824 | Complete [2, 20]: 0.9897 | Difference [2, 21]: 0.31

O=C(CCCCCCC(=O)Nc1ccccc1)NO [Vorinostat]
Cholesterol-free media + simvastatin (0.04 μM) [1, 22]: 0.872 | Complete Media [1, 23]: 0.635 | Difference [1, 5]: −0.24 | Difference [2, 25]: −0.17 | Cholesterol-free [2, 26]: 0.4861 | Complete [2, 4]: 0.3154

Cc1ccc(Sc2ccccc2N2CCNCC2)c(C)c1 [Vortioxetine (hydrobromide)]
Cholesterol-free media + simvastatin (0.04 μM) [1, 9]: 1.363 | Complete Media [1, 10]: 1.083 | Difference [1, 5]: −0.28 | Difference [2, 15]: −0.30 | Cholesterol-free [2, 11]: 0.7215 | Complete ([2]; NCI-H292 cells, complete media): 0.4184

Cc1ccc(Sc2ccccc2N2CCNCC2)c(C)c1 [Vortioxetine]
Cholesterol-free media + simvastatin (0.04 μM) [1, 9]: 1.222 | Complete Media [1, 10]: 0.843 | Difference [1, 5]: −0.38 | Cholesterol-free [2, 19]: 0.5855 | Complete [2, 20]: 0.993 | Difference [2, 21]: 0.41
